# Columns and labels:
# [1] = molecular target: T1, IRAK4 (Homo sapiens, UniProt Q9NWZ3); assay: IRAK4 PhosphoSens Biochemical Assay (BIOCHEM); conditions: 200 μM ATP, 10 μM peptide substrate AQT0326, 1 nM IRAK4, room temperature, 240 minutes
# T1 sequence (Q9NWZ3 1-460): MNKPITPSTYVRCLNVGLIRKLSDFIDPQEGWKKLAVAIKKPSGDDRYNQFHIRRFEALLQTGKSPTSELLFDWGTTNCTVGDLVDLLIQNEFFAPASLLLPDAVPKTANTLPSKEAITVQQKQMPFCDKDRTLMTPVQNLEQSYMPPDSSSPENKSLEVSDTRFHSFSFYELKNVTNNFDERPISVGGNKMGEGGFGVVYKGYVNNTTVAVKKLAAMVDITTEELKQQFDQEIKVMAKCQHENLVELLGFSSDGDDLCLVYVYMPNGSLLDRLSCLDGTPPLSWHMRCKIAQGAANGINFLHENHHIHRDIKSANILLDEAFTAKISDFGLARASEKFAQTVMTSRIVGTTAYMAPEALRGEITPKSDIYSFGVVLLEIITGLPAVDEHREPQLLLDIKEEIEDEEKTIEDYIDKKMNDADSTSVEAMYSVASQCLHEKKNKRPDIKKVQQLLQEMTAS
# Method: The PhosphoSens® biochemical assay was performed as described by the vendor (AssayQuant Technologies Inc. Marlborough, MA). A 1.25× stock solution of IRAK4 (PV4002, ThermoFisher Scientific, Waltham, MA) and a 5× stock solution of ATP and Sox conjugated peptide substrate, AQT0326 (CSKS-AQT0326B, AssayQuant Technologies), were prepared in 1× kinase reaction buffer consisting of 50 mM HEPES, pH 7.5, 0.01% Brij-35, 0.5 mM EGTA, 20 mM MgCl2 and 1 mM DTT. 10 μL of the ATP and substrate solution mix, for a final concentration of 200 μM ATP and 10 μM peptide substrate, was added to a Coming 3574 384-well, white, non-binding surface microtiter plate containing 0.5 μL of serially diluted test compounds prepared in DMSO. The reactions were started with the addition of 40 μL of the enzyme solution, for a final IRAK4 concentration of 1 nM, and monitored every 71 seconds for 240 minutes at λEX 360/λEM 485 in a BioTek Synergy H4 plate reader (Agilent Technologies, Santa Clara, CA) at room temperature. The initial linear portions of the progress curves were fit according to a linear equation to yield the slopes and converted to % inhibition based on a value of 100% activity for the no inhibitor treated control. IC50 values of each compound were obtained by fitting the % inhibition-compound concentration curves using Dotmatics software (Dotmatics, Bishops Stortford, Hertfordshire, England).
# [2] = molecular target: T1, IRAK4; assay: ALE THP1 HTRF (IRAK4 in THP1 cell lysates, Homogeneous Time Resolved Fluorescence); assay type: cell-based; design: THP1 Homogeneous Time Resolved Fluorescence (ALE THP1 HTRF) Procedure; endogenous in cells; host or cells: THP1; conditions: THP1 cells
# Method: Cell culture media was prepared in a tissue culture hood in a sterile environment by adding 10% FBS and 1% Penicillin Streptomycin to 500 mL no phenol red RPMI 1640 media. The media was filtered through a Nalgene Bottle Top Filter and stored at 4° C.
# For Homogenous Time Resolved Fluorescence (HTRF) assays, a Cisbio HTRF kit was used, which included: Lysis Buffer #1 4×, Blocking Reagent #3 100×, 20× Antibody 1 (Anti-IRAK4 d2), 20× Antibody 2 (Anti-IRAK4 k), and Detection Buffer.
# 4× Lysis Buffer was stored at 4° C. For use as 1× Lysis buffer, the 4× solution was diluted with de-ionized water (distilled water, Gibco Cat. #15230279) and 100× Blocking Reagent in a 1:3:0.04 volume ratio.
# 20× Antibody Solution aliquots were stored in −80° C. and the Detection Buffer was stored in 4° C. For use as a 1× Antibody Solution, the 20× Antibody Solution aliquot was diluted with Detection Buffer in a 1:19 volume ratio.
# Cells were lysed at room temperature for 45 min with shaking. A BCA protein assay was performed and normalization was conducted to the desired total protein concentration with 1× lysis buffer. Next, 1× Antibody Solutions were prepared by adding 380 μL Detection Buffer to 20 μL 20× Antibody Solution aliquots and mixing well. 1× Antibody Solutions were combined 1:1 and briefly vortexed. For control wells, 20 μL 1× anti IRAK4-k Antibody Solution was saved. The 384-well plate (ProxiPlate-384 Plus, Perkin Elmer Cat. #6008289) was loaded by adding 4 μL of the mixed Antibody Solution to empty wells using a single channel repeater. Using a multi-channel repeater, 16 μL lysate was added per well, and any bubbles that were formed were popped with 20 μL pipette tips and Kimwipe edges. In column 10, triplicates of each control was prepared. In wells A10, B10, and C10, buffer control was prepared by adding 16 μL Lysis Buffer and 4 μL Detection Buffer. In wells D10, E10, and F10, cryptate control was prepared by adding 16 μL Lysis Buffer, 2 μL Detection Buffer, and 2 μL 1× anti IRAK4-k Antibody Solution. In wells G10, H10, and 110, a negative control was prepared by adding 16 μL Lysis Buffer and 4 μL mixed Antibody Solution. The plate was sealed with a clear seal and covered with an aluminum lid. The plate was spun down at 800 g for 5 min and incubated in the dark at room temperature overnight. The next day, the plate was spun down at 800 g for 5 min. The samples were analyzed by a plate reader (Envision, PerkinElmer) using the Desnor 384 HTRF program.
Structure (SMILES),IC50 [1],EC50 [2]
"CN(CC1CCC(n2cc(NC(=O)c3cnn4ccc(N5C[C@H](N)C[C@@H](F)C5)nc34)c(C(F)F)n2)CC1)C1CCN(c2ccc3c(C4CCC(=O)NC4=O)nn(C)c3c2)CC1 (stereo partly drawn) [P-28, N-[3-(Difluoromethyl)-1-[4-[[[1-[3-(2,6-dioxo-3-piperidyl)-1-methyl-indazol-6-yl]-4-piperidyl]-methyl-amino]methyl]cyclohexyl]pyrazol-4-yl]-5-[(3r,5r)-3-amino-5-fluoro-1-piperidyl]pyrazolo[1,5-a]pyrimidine-3-carboxamide]",< 0.5 nM,5 nM
"CN(CC1CCC(n2cc(NC(=O)c3cnn4ccc(N5C[C@H](N)C[C@@H](F)C5)nc34)c(C(F)F)n2)CC1)C1CCN(c2cccc3c(C4CCC(=O)NC4=O)nn(C)c23)CC1 (stereo partly drawn) [P-30, N-[3-(difluoromethyl)-1-[4-[[[1-[3-(2,6-dioxo-3-piperidyl)-1-methyl-indazol-7-yl]-4-piperidyl]-methyl-amino]methyl]cyclohexyl]pyrazol-4-yl]-5-[(3R,5R)-3-amino-5-fluoro-1-piperidyl]pyrazolo[1,5-a]pyrimidine-3-carboxamide]",< 0.5 nM,14 nM
CN(c1cccc2c(C3CCC(=O)NC3=O)nn(C)c12)C1CCN(CCC2CCC(n3cc(NC(=O)c4cnn5ccc(N6CCOCC6)nc45)c(C(F)F)n3)CC2)CC1 (stereo not drawn) [P-39],< 0.5 nM,> 10000 nM
CN(CC1CCC(n2cc(NC(=O)c3cnn4ccc(N5C[C@H]6CC[C@@H](C5)O6)nc34)c(C(F)F)n2)CC1)C1CCN(c2ccc3c(C4CCC(=O)NC4=O)nn(C)c3c2)CC1 (stereo partly drawn) [P-42],< 0.5 nM,> 10000 nM
CN(CC1CCC(n2cc(NC(=O)c3cnn4ccc(N5Cc6cnn(C)c6C5)nc34)c(C(F)F)n2)CC1)C1CCN(c2ccc3c(C4CCC(=O)NC4=O)nn(C)c3c2)CC1 (stereo not drawn) [P-49],0.8 nM,> 10000 nM
CN(CC1CCC(n2cc(NC(=O)c3cnn4ccc(N5CC[C@H](C#N)C5)nc34)c(C(F)F)n2)CC1)C1CCN(c2ccc3c(C4CCC(=O)NC4=O)nn(C)c3c2)CC1 (stereo partly drawn) [P-50],0.8 nM,> 10000 nM

# From patent US20260327232A1, “Heteroaryl Compounds as Ligand Directed Degraders of IRAK4” (Celgene Corporation, priority 2023, published 2026)
